According to patent US10040781B2, “Tank-binding kinase inhibitor compounds” (Gilead Sciences, Inc., priority 2014, dated 2018):

Tests used:
[1] = target: hJAK2 (Homo sapiens (Human), UniProt O60674); assay: hJAK2 LANCE TR-FRET enzymatic assay; type: biochemical; conditions: read-out: JAK2 IC50
[2] = target: TBK1 (Homo sapiens (Human), UniProt Q9UHD2); assay: TBK1 TR-FRET enzymatic assay;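 also: phosphorylation of a biotinylated Ser/Thr peptide by purified full-length recombinant TBK1, read by TR-FRET after 240 min at 25 °C, IC50 is the geometric mean of at least four runs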
Sequence of TBK1 (Q9UHD2 whole entry): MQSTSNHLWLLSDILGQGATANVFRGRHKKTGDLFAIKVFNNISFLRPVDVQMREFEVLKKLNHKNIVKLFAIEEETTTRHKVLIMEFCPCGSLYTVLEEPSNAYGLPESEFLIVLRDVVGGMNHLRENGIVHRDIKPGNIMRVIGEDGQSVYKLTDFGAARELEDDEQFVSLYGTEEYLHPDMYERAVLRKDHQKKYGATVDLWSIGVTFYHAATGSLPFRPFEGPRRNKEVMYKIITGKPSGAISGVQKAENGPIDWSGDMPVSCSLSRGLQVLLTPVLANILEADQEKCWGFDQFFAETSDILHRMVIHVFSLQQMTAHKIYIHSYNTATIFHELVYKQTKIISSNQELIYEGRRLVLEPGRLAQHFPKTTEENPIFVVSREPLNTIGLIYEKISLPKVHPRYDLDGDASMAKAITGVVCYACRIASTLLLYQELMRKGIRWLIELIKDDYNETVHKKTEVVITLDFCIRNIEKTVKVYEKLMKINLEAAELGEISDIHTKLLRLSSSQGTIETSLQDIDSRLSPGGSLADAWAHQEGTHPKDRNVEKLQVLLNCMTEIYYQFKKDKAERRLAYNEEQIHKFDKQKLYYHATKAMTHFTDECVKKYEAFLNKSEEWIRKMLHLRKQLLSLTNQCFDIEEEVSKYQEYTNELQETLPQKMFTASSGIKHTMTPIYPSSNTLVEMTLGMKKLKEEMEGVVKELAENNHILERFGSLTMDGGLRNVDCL
Protocol: Enzymatic activity of IKKε and TBK1 was measured using a homogeneous time resolved fluorescence resonance energy transfer (TR-FRET) assay that monitors enzyme dependent phosphorylation of a biotinylated serine/threonine peptide substrate. […] TBK1 and IKKε were expressed and purified as full length recombinant proteins. Detection reagents for the assay were purchased from Cisbio. […] After an assay reaction time of 240 minutes at 25° C., reactions were terminated with EDTA.
All IC50 values represent geometric mean values of a minimum of four determinations.

[3] = target: IKKε (Homo sapiens (Human), UniProt Q14164); assay: IKKε TR-FRET enzymatic assay; type: biochemical; conditions: read-out: IKKe IC50
Sequence of IKKε (Q14164 whole entry): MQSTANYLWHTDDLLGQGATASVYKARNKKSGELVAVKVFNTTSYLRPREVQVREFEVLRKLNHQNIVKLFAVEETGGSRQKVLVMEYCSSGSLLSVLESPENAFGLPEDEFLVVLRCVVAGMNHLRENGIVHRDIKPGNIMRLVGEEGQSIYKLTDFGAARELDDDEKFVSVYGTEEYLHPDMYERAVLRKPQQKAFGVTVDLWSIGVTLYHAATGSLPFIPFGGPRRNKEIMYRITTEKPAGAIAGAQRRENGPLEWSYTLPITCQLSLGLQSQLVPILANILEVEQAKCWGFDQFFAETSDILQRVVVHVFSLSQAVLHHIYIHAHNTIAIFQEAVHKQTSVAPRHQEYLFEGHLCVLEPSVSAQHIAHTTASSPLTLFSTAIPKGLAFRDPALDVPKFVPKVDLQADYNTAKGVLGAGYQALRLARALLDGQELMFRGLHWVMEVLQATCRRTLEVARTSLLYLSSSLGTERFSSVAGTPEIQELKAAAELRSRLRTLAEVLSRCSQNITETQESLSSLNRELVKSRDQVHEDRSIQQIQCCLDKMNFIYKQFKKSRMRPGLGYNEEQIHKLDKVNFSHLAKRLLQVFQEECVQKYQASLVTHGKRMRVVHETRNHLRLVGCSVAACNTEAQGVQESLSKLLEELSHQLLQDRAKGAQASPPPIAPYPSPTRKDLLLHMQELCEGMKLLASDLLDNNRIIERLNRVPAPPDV

Sequence of hJAK2 (O60674 whole entry): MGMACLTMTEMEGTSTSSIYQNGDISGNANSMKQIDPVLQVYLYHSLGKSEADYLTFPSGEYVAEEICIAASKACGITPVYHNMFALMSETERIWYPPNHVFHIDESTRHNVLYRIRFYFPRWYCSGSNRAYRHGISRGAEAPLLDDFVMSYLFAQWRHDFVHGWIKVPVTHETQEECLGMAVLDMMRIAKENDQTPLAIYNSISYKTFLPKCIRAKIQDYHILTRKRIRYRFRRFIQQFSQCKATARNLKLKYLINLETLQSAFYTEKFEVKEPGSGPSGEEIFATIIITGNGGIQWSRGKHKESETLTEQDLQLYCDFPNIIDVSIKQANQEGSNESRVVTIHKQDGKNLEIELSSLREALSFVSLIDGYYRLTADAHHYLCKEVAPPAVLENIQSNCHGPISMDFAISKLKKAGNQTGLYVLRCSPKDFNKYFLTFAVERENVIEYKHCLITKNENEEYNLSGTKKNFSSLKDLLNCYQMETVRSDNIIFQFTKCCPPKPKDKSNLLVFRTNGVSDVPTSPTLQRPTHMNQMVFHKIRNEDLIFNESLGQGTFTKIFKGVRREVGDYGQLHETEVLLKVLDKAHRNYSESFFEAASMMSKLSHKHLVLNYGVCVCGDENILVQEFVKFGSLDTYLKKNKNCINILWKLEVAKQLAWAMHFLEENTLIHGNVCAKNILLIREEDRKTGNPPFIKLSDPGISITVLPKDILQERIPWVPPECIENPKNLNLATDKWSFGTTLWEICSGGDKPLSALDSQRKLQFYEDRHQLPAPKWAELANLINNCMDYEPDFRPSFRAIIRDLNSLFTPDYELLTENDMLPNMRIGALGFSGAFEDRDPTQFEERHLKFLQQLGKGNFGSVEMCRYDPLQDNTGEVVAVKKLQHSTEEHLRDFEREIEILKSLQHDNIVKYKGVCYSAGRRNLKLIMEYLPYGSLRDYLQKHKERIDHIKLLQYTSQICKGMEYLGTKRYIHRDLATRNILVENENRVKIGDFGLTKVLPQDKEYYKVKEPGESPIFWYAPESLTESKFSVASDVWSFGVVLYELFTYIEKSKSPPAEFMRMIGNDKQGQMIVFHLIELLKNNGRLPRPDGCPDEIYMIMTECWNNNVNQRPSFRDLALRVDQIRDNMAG

Row | Compound | IC50 [1] [nM] | IC50 [2] [nM] | IC50 [3] [nM]
1 | N#Cc1cc(-c2ncnc(Nc3ccc(N4CCN(C5COC5)CC4)cc3)n2)ccc1N1CC[C@H](O)C1 [Example 203, (S)-2-(3-hydroxypyrrolidin-1-yl)-5-(4-((4-(4-(oxetan-3-yl)piperazin-1-yl)phenyl)amino)-1,3,5-triazin-2-yl)benzonitrile] | 315 | 7 | 27
2 | N#Cc1cc(-c2ncnc(Nc3ccc(N4CCN(C5COC5)CC4)cc3)n2)ccc1N1CCC2(CCO2)C1 (stereo not drawn) [Example 207, 5-(4-((4-(4-(oxetan-3-yl)piperazin-1-yl)phenyl)amino)-1,3,5-triazin-2-yl)-2-(1-oxa-6-azaspiro[3.4]octan-6-yl)benzonitrile] | 258 | 38 | 128
3 | N#Cc1cc(-c2ncnc(Nc3ccc(N4CCN(C5COC5)CC4)cc3)n2)ccc1N1CCC2(C1)OCCO2 [Example 208, 5-(4-((4-(4-(oxetan-3-yl)piperazin-1-yl)phenyl)amino)-1,3,5-triazin-2-yl)-2-(1,4-dioxa-7-azaspiro[4.4]nonan-7-yl)benzonitrile] | 330 | 64 | 283
4 | N#Cc1cc(-c2ncnc(Nc3ccc(N4CCN(C5COC5)CC4)cc3)n2)ccc1N1CC2(CCO2)C1 [Example 210, 5-(4-((4-(4-(oxetan-3-yl)piperazin-1-yl)phenyl)amino)-1,3,5-triazin-2-yl)-2-(1-oxa-6-azaspiro[3.3]heptan-6-yl)benzonitrile] | 354 | 26 | 71
5 | N#Cc1cc(-c2ncnc(Nc3ccc(N4CCN(C5COC5)CC4)cc3)n2)ccc1N1CCC2(CCOC2)CC1 [Example 213, 5-(4-((4-(4-(oxetan-3-yl)piperazin-1-yl)phenyl)amino)-1,3,5-triazin-2-yl)-2-(2-oxa-8-azaspiro[4.5]decan-8-yl)benzonitrile] | ≥ 1000 | 3 | 14
6 | N#Cc1cc(-c2ncnc(Nc3ccc(N4CCN(C5COC5)CC4)cc3)n2)ccc1N1CCC2(CCO2)CC1 [Example 214, 5-(4-((4-(4-(oxetan-3-yl)piperazin-1-yl)phenyl)amino)-1,3,5-triazin-2-yl)-2-(1-oxa-7-azaspiro[3.5]nonan-7-yl)benzonitrile] | 301 | 12 | 43
7 | N#Cc1cccc(-c2ncnc(Nc3ccc(N4CCN(C5COC5)CC4)cc3)n2)c1 [Example 215, 3-(4-((4-(4-(oxetan-3-yl)piperazin-1-yl)phenyl)amino)-1,3,5-triazin-2-yl)benzonitrile] | 657 | 1000 | ≥ 1000
8 | N#Cc1cc(-c2ncnc(Nc3ccc(N4CCN(C5COC5)CC4)cc3)n2)ccc1OC1CCCCC1 [Example 217, 2-(cyclohexyloxy)-5-(4-((4-(4-(oxetan-3-yl)piperazin-1-yl)phenyl)amino)-1,3,5-triazin-2-yl)benzonitrile] | 980 | 4 | 14
9 | C[C@@H](O)C(=O)N1CCC(Oc2ccc(-c3ncnc(Nc4ccc(N5CCN(C6COC6)CC5)cc4)n3)cc2C#N)CC1 [Example 219, (R)-2-((1-(2-hydroxypropanoyl)piperidin-4-yl)oxy)-5-(4-((4-(4-(oxetan-3-yl)piperazin-1-yl)phenyl)amino)-1,3,5-triazin-2-yl)benzonitrile] | 626 | 44 | 126
10 | C[C@H]1C[C@H](Oc2ccc(-c3ncnc(Nc4ccc(N5CCN(C6COC6)CC5)cc4)n3)cc2C#N)CCN1C(=O)CO [Example 221, 2-(((2S,4R)-1-(2-hydroxyacetyl)-2-methylpiperidin-4-yl)oxy)-5-(4-((4-(4-(oxetan-3-yl)piperazin-1-yl)phenyl)amino)-1,3,5-triazin-2-yl)benzonitrile] | 488 | 18 | 68
11 | C[C@H](O)C(=O)N1CCC(Oc2ccc(-c3ncnc(Nc4ccc(N5CCO[C@@H](CO)C5)cc4)n3)cc2C#N)CC1 [Example 225, 5-(4-((4-((R)-2-(hydroxymethyl)morpholino)phenyl)amino)-1,3,5-triazin-2-yl)-2-((1-((S)-2-hydroxypropanoyl)piperidin-4-yl)oxy)benzonitrile] | ≥ 1000 | 8 | 22
12 | N#Cc1cc(-c2ncnc(Nc3ccc(N4CCO[C@@H](CO)C4)cc3)n2)ccc1OC1CCNCC1(F)F (stereo partly drawn) [Example 226, 2-((3,3-difluoropiperidin-4-yl)oxy)-5-(4-((4-((R)-2-(hydroxymethyl)morpholino)phenyl)amino)-1,3,5-triazin-2-yl)benzonitrile] | 311 | 5 | 29
13 | N#Cc1cc(-c2ncnc(Nc3ccc(N4CCO[C@@H](CO)C4)cc3)n2)ccc1OC1CCN(C(=O)CO)CC1 [Example 227, (R)-2-((1-(2-hydroxyacetyl)piperidin-4-yl)oxy)-5-(4-((4-(2-(hydroxymethyl)morpholino)phenyl)amino)-1,3,5-triazin-2-yl)benzonitrile] | 333 | 2 | 4
14 | C[C@H](O)C(=O)N1CC[C@H](Oc2ccc(-c3ncnc(Nc4ccc(N5CCO[C@@H](CO)C5)cc4)n3)cc2C#N)[C@H](F)C1 [Example 231, 2-(((3R,4S)-3-fluoro-1-((S)-2-hydroxypropanoyl)piperidin-4-yl)oxy)-5-(4-((4-((R)-2-(hydroxymethyl)morpholino)phenyl)amino)-1,3,5-triazin-2-yl)benzonitrile] | 486 | 3 | 1

Stronger by IC50 [1], values ahead:

Row | IC50 [1] [nM] | IC50 [2] [nM] | IC50 [3] [nM] | Compound
15 | 109 | 3 | 7 | N#Cc1cc(-c2ncnc(Nc3ccc(N4CCN(C5COC5)CC4)cc3)n2)ccc1N1CC[C@@H](F)C1 [Example 200, (R)-2-(3-fluoropyrrolidin-1-yl)-5-(4-((4-(4-(oxetan-3-yl)piperazin-1-yl)phenyl)amino)-1,3,5-triazin-2-yl)benzonitrile]
16 | 69 | 1 | 5 | N#Cc1cc(-c2ncnc(Nc3ccc(N4CCN(C5COC5)CC4)cc3)n2)ccc1N1CC[C@H](F)C1 [Example 201, (S)-2-(3-fluoropyrrolidin-1-yl)-5-(4-((4-(4-(oxetan-3-yl)piperazin-1-yl)phenyl)amino)-1,3,5-triazin-2-yl)benzonitrile]
17 | 192 | 3 | 13 | N#Cc1cc(-c2ncnc(Nc3ccc(N4CCN(C5COC5)CC4)cc3)n2)ccc1N1CC[C@@H](O)C1 [Example 202, (R)-2-(3-hydroxypyrrolidin-1-yl)-5-(4-((4-(4-(oxetan-3-yl)piperazin-1-yl)phenyl)amino)-1,3,5-triazin-2-yl)benzonitrile]
18 | 47 | 1 | 18 | C[C@@H]1C[C@@H](O)CN1c1ccc(-c2ncnc(Nc3ccc(N4CCN(C5COC5)CC4)cc3)n2)cc1C#N [Example 204, 2-((2R,4R)-4-hydroxy-2-methylpyrrolidin-1-yl)-5-(4-((4-(4-(oxetan-3-yl)piperazin-1-yl)phenyl)amino)-1,3,5-triazin-2-yl)benzonitrile]
19 | 51 | 1 | 17 | C[C@H]1C[C@@H](O)CN1c1ccc(-c2ncnc(Nc3ccc(N4CCN(C5COC5)CC4)cc3)n2)cc1C#N [Example 205, 2-((2S,4R)-4-hydroxy-2-methylpyrrolidin-1-yl)-5-(4-((4-(4-(oxetan-3-yl)piperazin-1-yl)phenyl)amino)-1,3,5-triazin-2-yl)benzonitrile]
20 | 236 | 12 | 20 | N#Cc1cc(-c2ncnc(Nc3ccc(N4CCN(C5COC5)CC4)cc3)n2)ccc1N1CCC2(COC2)C1 [Example 206, 5-(4-((4-(4-(oxetan-3-yl)piperazin-1-yl)phenyl)amino)-1,3,5-triazin-2-yl)-2-(2-oxa-6-azaspiro[3.4]octan-6-yl)benzonitrile]
21 | 170 | 6 | 22 | N#Cc1cc(-c2ncnc(Nc3ccc(N4CCN(C5COC5)CC4)cc3)n2)ccc1N1CC2(CCOCC2)C1 [Example 211, 5-(4-((4-(4-(oxetan-3-yl)piperazin-1-yl)phenyl)amino)-1,3,5-triazin-2-yl)-2-(7-oxa-2-azaspiro[3.5]nonan-2-yl)benzonitrile]
22 | 137 | 29 | 63 | N#Cc1cc(-c2ncnc(Nc3ccc(N4CCN(C5COC5)CC4)cc3)n2)ccc1N1CCC2(CCOCC2)C1 [Example 212, 5-(4-((4-(4-(oxetan-3-yl)piperazin-1-yl)phenyl)amino)-1,3,5-triazin-2-yl)-2-(8-oxa-2-azaspiro[4.5]decan-2-yl)benzonitrile]
23 | 182 | 21 | 60 | C[C@@H]1C[C@H](Oc2ccc(-c3ncnc(Nc4ccc(N5CCN(C6COC6)CC5)cc4)n3)cc2C#N)CCN1C(=O)CO [Example 222, 2-(((2R,4R)-1-(2-hydroxyacetyl)-2-methylpiperidin-4-yl)oxy)-5-(4-((4-(4-(oxetan-3-yl)piperazin-1-yl)phenyl)amino)-1,3,5-triazin-2-yl)benzonitrile]
24 | 206 | 1 | 2 | C[C@H](O)C(=O)N1CCC(Oc2ccc(-c3ncnc(Nc4ccc(N5CCO[C@@H](CO)C5)cc4)n3)cc2C#N)C(F)(F)C1 (stereo partly drawn) [Example 228, 2-((3,3-difluoro-1-((S)-2-hydroxypropanoyl)piperidin-4-yl)oxy)-5-(4-((4-((R)-2-(hydroxymethyl)morpholino)phenyl)amino)-1,3,5-triazin-2-yl)benzonitrile]
25 | 233 | 4 | 2 | CC(=O)N1CC[C@H](Oc2ccc(-c3ncnc(Nc4ccc(N5CCO[C@@H](CO)C5)cc4)n3)cc2C#N)C(F)(F)C1 [Example 230, 2-(((5)-1-acetyl-3,3-difluoropiperidin-4-yl)oxy)-5-(4-((4-((R)-2-(hydroxymethyl)morpholino)phenyl)amino)-1,3,5-triazin-2-yl)benzonitrile]
